One data set concerns the target CYP 2Cb (Homo sapiens, UniProt P11712). In words: CYP inhibition. It is filed as in vitro ADME.
Data set [1] relates to hippocampal gene expression. In words: Whole-transcriptome RNA-sequencing of hippocampus. It counts as in vivo, mice. As for the experimental part: RNA was isolated from the hippocampus using the RNeasy Plus Universal Mini Kit (QIAGEN, Valencia, CA, USA). RNA sequencing (RNA-seq) libraries were prepared using the TruSeq Stranded mRNA Sample Prep Kit (Illumina, San Diego, CA, USA) according to the manufacturer’s instructions. Briefly, polyadenylation RNA was selected using oligo(dT) beads. Messenger RNA was then fragmented and reverse-transcribed. Complementary DNA (cDNA) was end-repaired, adenylated, and ligated with Illumina adapters with indexes. Adapter-ligated cDNA was then amplified. Libraries were pooled and sequenced single-end 50 bp on the HiSeq 2500 platform (Illumina). Sequencing reads were quality-tested using FastQC and aligned to the mm10 mouse genome using STAR Aligner version 2.4k. Mapping was carried out using default parameters (up to ten mismatches per read and up to nine multimapping locations per read). Raw gene expression was quantified across all gene exons by RNA-seq using the top-expressed isoform as a proxy for gene expression, and differential gene expression was carried out using the edge R package version 3.6.8, using replicates to compute within-group dispersion. p Values are adjusted to control the false discovery rate (FDR) by the method of Benjamini and Hochberg. Differentially expressed genes were defined as having an FDR <0.05 and a log2 fold change >1. […]

The subject of another data set is Aβ plaque. Further details: method as in PMID 27149904. Conditions: early study; cited from earlier work.
Data set [2] has as its system HT22 cells expressing the brain-derived neurotrophic factor (BDNF) receptor transmembrane receptor kinase B. Kind of data set: BDNF-like activity (rescue from serum starvation). It counts as cell-based. The conditions noted are these: Mus musculus, HT-22, read-out: Half-maximal effective concentration, BDNF-like activity. How it is done: (§1) The various phenotypic screening assays were conducted as previously described. Briefly, HT-22, primary cortical neurons, or MC65 was plated and exposed to the different environmental stresses. Cells were treated with varying concentrations of CAD-31, and half-maximal effective concentration (EC50) was determined on the basis of cell viability.
• An assay that mimics the dramatic loss of neurotrophic support in the old brain is the trophic factor withdrawal assay. Primary embryonic day 18 cortical cells are plated at low density in serum-free medium. At low density, the cells die within 2 days; they can be rescued by combinations of neurotrophic growth factors, but not by one alone ([19] and unpublished data). […] BDNF is a molecule that is also involved in promoting memory and neurogenesis and is reduced in the brain with age and in AD, as well as in other neurological disorders. BDNF has long been considered a drug target for AD [23]. […] A reduction in GSH is a common denominator of old age and essentially all chronic central nervous system (CNS) diseases. J147 and CAD-31 both effectively reduce oxidative stress, with EC50 of 6 nM and 20 nM, respectively. • CAD-31 also prevents loss of energy metabolism that leads to neuron cell death in an in vitro ischemia model. […]

A further data set has as its system MC65. In words: Aβ toxicity (intracellular). Conditions: read-out: Half-maximal effective concentration, Aβ toxicity (intracellular). It is filed as cell-based, human. As for the experimental part: as §1
• An assay that mimics the dramatic loss of neurotrophic support in the old brain is the trophic factor withdrawal assay. Primary embryonic day 18 cortical cells are plated at low density in serum-free medium. At low density, the cells die within 2 days; they can be rescued by combinations of neurotrophic growth factors, but not by one alone ([19] and unpublished data). […] BDNF is a molecule that is also involved in promoting memory and neurogenesis and is reduced in the brain with age and in AD, as well as in other neurological disorders. BDNF has long been considered a drug target for AD [23]. […] A reduction in GSH is a common denominator of old age and essentially all chronic central nervous system (CNS) diseases. J147 and CAD-31 both effectively reduce oxidative stress, with EC50 of 6 nM and 20 nM, respectively. • CAD-31 also prevents loss of energy metabolism that leads to neuron cell death in an in vitro ischemia model. […] Intracellular Aβ toxicity was assayed in the human neuron cell line MC65 that conditionally expresses the C99 fragment of the amyloid precursor protein. When the cells are induced to make Aβ, the cells die within 4 days. Both J147 and CAD-31 block this toxicity at around 10 nM. Therefore, CAD-31 has a repertoire of neuroprotective activities similar but not identical to that of its parent compound, J147.

A further data set deals with Aβ1–42. In words: Aβ enzyme-linked immunosorbent assay. It counts as in vivo, mice. How it is done: Hippocampal tissue samples were homogenized in 10 volumes of radioimmunoprecipitation assay (RIPA) lysis buffer (50 mM Tris, pH 7.5, 150 mM NaCl, 0.1% SDS, 0.5% deoxycholate, and 1% Nonidet P-40) containing a cocktail of protease and phosphatase inhibitors [[…] each of pepstatin A, aprotinin, phosphoramidon, and leupeptin; 0.5 mM 4-(2-aminoethyl)benzenesulfonyl fluoride hydrochloride; 1 mM ethylene glycol-bis(β-aminoethyl ether)-N,N,N′,N′-tetraacetic acid; 5 mM fenvalerate; and 5 mM cantharidin]. Samples were sonicated (2 × 10 seconds) and centrifuged first at 10,000 × g for 10 minutes and then at 100,000 × g for 60 minutes at 4 °C. The 100,000 × g pellet was taken up either in 6 M guanidine for Aβ analysis or in SDS sample buffer for Western blot analysis. Protein concentrations in the cell extracts were determined using a bicinchoninic acid protein assay (Pierce Biotechnology, Rockford, IL, USA). Equal amounts of protein were solubilized in 2.5× SDS sample buffer, separated on 12% SDS-polyacrylamide gels, transferred to Immobilon-P (EMD Millipore, Billerica, MA, USA), and immunoblotted with the antibodies indicated in the Materials subsection above. For Western blot experiments, protein levels were normalized to actin levels. An unpaired t test was performed to compare two groups at a single time point. When comparing multiple groups, one-way analysis of variance (ANOVA) followed by Tukey’s post hoc test was used. All statistical analysis was conducted using GraphPad InStat software.
Aβ1–42 levels in hippocampal lysate were analyzed using Aβ1–42 enzyme-linked immunosorbent assay kits from Invitrogen (catalogue number KHB3442). All kit reagents were brought to room temperature before use. […] A quantity of 50 μl of Aβ peptide standards and samples was added in duplicate to 96-well plates precoated with antibody to the NH2-terminal region of Aβ. […] Stop solution was then added at 100 μl to each well, followed by reading the absorbance of each well at 450 nm. […] The concentrations of the samples were calculated from the standard curve and multiplied by the dilution factor.

The test system of data set [3] is panel of 60 brain ion channels, transporters, and receptors. In words: Lead Profile Screen. It counts as binding. The text has this: Before undertaking animal experiments, it is important to determine if a new drug candidate has a chance for further clinical development by determining its pharmacological properties of bioavailability and brain penetrance as well as predicted safety.

[4] abbreviates: brain of CAD-31 treated hAPPswe/PS1ΔE9 mice (AD+31).

Where two headings read alike, the source gives them in different places.

Sequence of CYP 2Cb (P11712 whole entry, the tested form may be a part): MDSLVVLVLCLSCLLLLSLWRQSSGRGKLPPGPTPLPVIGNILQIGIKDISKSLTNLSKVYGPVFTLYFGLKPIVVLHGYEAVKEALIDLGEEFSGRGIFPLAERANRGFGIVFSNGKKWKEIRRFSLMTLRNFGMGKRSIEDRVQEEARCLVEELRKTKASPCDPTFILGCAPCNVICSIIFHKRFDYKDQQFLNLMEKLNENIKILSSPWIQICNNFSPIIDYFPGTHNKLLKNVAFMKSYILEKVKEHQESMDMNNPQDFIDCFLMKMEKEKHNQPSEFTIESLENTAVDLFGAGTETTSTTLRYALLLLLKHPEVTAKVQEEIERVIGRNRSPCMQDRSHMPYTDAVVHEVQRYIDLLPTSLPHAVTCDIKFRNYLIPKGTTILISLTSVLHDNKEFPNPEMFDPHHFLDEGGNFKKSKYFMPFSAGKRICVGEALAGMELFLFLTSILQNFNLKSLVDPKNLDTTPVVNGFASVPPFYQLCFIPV

In turn, `Cc1ccc(N(/N=C/c2cccc(OC(F)(F)F)c2)C(=O)C(F)(F)F)c(C)c1` [CAD-31] displayed an EC50 at 10 µM at CYP 2Cb above 10000 nM. In addition, the “number of significant genes changed” value is listed as 730 in data set [1] (AD model, CAD-31-treated vs AD) and 29 in data set [1] (WT model, CAD-31-treated vs control). Further, the “Aβ plaque density or size” value with Aβ plaque is on record as “no effect on Aβ plaque density or size”. Also, the EC50 in data set [2] was 95 nM; with MC65 (Homo sapiens, MC65, MC65) it was around 10 nM; in the data set with MC65 (MC65), 12 nM; in data set [3] (all targets of the panel), above 10000 nM. For the same compound, the “RIPA Insoluble Aβ1-42” value with Aβ1–42 (setting [4]) was 4581 ± 489.3 pg/mg protein. Also, the “RIPA Soluble Aβ1-42” value in the data set on Aβ1–42 (setting [4]) was 16.57 ± 3.359 pg/mg protein. Moreover, the “levels of soluble or insoluble Aβ1–42” value in the data set with Aβ1–42 (therapeutic paradigm, AD mice) is given as “did not reduce the levels of either soluble or insoluble Aβ1–42”. Also, in data set [3] (10 μM, 60 brain ion channels, transporters, and receptors), the “interaction with proteins in the lead profile screen panel” value is given as “did not interact”.

(Values after PMC5513091, “A novel Alzheimer’s disease drug candidate targeting inflammation and fatty acid metabolism” (Alzheimer's Research & Therapy, 2017).)
